Laboratory results taken from PMC9516332 (Frontiers in Oncology, 2022).
Where two headings read alike, the source gives them in different places.

Assays:
[1] = molecular target: panel of 255 wild-type kinases (Homo sapiens, UniProt P31749); assay: Kinase panel profiling at 1 µmol/L (MSA or IMAP), percentage inhibition; type: biochemical; settings: read-out: %-inhibition AKT1
[2] = molecular target: T1, panel of 255 wild-type kinases (Homo sapiens, UniProt Q96PF2); assay: as above; type: biochemical; settings: read-out: %-inhibition at 1 µmol/L, TSSK2
T1 sequence (Q96PF2 1-358): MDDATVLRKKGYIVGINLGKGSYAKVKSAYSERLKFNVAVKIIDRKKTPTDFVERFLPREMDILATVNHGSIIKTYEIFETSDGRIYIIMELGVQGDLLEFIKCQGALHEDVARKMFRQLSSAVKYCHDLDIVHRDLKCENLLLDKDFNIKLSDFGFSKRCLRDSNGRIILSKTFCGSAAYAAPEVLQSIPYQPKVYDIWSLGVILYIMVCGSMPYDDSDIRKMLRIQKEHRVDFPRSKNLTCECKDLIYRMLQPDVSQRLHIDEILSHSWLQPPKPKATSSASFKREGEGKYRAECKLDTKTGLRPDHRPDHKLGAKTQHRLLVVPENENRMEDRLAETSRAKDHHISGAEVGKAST

[3] = molecular target: panel of 255 wild-type kinases (Homo sapiens, UniProt Q9Y463); assay: as above; type: biochemical; settings: read-out: %-inhibition at 1 µmol/L, DYRK1B
AP-1060 (ETV6-NTRK3) = assay: Cell viability assay; settings: read-out: IC50 in cell proliferation assay
134 cancer cell lines = assay: Cell viability assay (ATPlite, 72 hours), IC50 on cancer cell line panel

SMILES: CNC(=O)c1ccc(-c2cnc3ncc(Cc4ccc5ncccc5c4)n3n2)cc1F [capmatinib]
- inhibition at 1 µM [1]: -10%
- inhibition at 1 µM [2]: -3.31%
- inhibition at 1 µM [3]: 1.71%
- IC50 (AP-1060 (ETV6-NTRK3)): > 31.6 µM
- IC50 (134 cancer cell lines; HEC-6, read-out: IC50 in cell proliferation assay): > 31.6 µM
- IC50 (134 cancer cell lines; Homo sapiens, 769-P, read-out: IC50 in cell proliferation assay): > 31.6 µM
- IC50 (134 cancer cell lines; Homo sapiens, 786-0, read-out: IC50 in cell proliferation assay): > 31.6 µM
- IC50 (134 cancer cell lines; Homo sapiens, A 172, read-out: IC50 in cell proliferation assay): > 31.6 µM
- IC50 (134 cancer cell lines; Homo sapiens, A204, read-out: IC50 in cell proliferation assay): > 31.6 µM
- IC50 (134 cancer cell lines; Homo sapiens, A498, read-out: IC50 in cell proliferation assay): > 31.6 µM
- IC50 (134 cancer cell lines; Homo sapiens, A549, read-out: IC50 in cell proliferation assay): > 31.6 µM
- IC50 (134 cancer cell lines; Homo sapiens, A704, read-out: IC50 in cell proliferation assay): > 31.6 µM
- IC50 (134 cancer cell lines; Homo sapiens, A-375, read-out: IC50 in cell proliferation assay): > 31.6 µM
- IC50 (134 cancer cell lines; Homo sapiens, A-427, read-out: IC50 in cell proliferation assay): 29.6 µM
- IC50 (134 cancer cell lines; Homo sapiens, ACHN, read-out: IC50 in cell proliferation assay): > 31.6 µM
- IC50 (134 cancer cell lines; Homo sapiens, AN3-CA, read-out: IC50 in cell proliferation assay): > 31.6 µM
- IC50 (134 cancer cell lines; Homo sapiens, ASPC1, read-out: IC50 in cell proliferation assay): > 31.6 µM
- IC50 (134 cancer cell lines; Homo sapiens, AU565, read-out: IC50 in cell proliferation assay): 5.52 µM
- IC50 (134 cancer cell lines; Homo sapiens, BT-20, read-out: IC50 in cell proliferation assay): > 31.6 µM
- IC50 (134 cancer cell lines; Homo sapiens, BT-474, read-out: IC50 in cell proliferation assay): > 31.6 µM
- IC50 (134 cancer cell lines; Homo sapiens, BT-549, read-out: IC50 in cell proliferation assay): > 31.6 µM
- IC50 (134 cancer cell lines; Homo sapiens, BXPC-3, read-out: IC50 in cell proliferation assay): > 31.6 µM
- IC50 (134 cancer cell lines; Homo sapiens, C-33-A, read-out: IC50 in cell proliferation assay): > 31.6 µM
- IC50 (134 cancer cell lines; Homo sapiens, CAL-27, read-out: IC50 in cell proliferation assay): > 31.6 µM
- IC50 (134 cancer cell lines; Homo sapiens, CCF-STTG1, read-out: IC50 in cell proliferation assay): > 31.6 µM
- IC50 (134 cancer cell lines; Homo sapiens, CCRF-CEM, read-out: IC50 in cell proliferation assay): 28.3 µM
- IC50 (134 cancer cell lines; Homo sapiens, COLO 205, read-out: IC50 in cell proliferation assay): > 31.6 µM
- IC50 (134 cancer cell lines; Homo sapiens, COLO-829, read-out: IC50 in cell proliferation assay): > 31.6 µM
- IC50 (134 cancer cell lines; Homo sapiens, DLD-1, read-out: IC50 in cell proliferation assay): > 31.6 µM
- IC50 (134 cancer cell lines; Homo sapiens, DU-145, read-out: IC50 in cell proliferation assay): > 31.6 µM
- IC50 (134 cancer cell lines; Homo sapiens, DU-4475, read-out: IC50 in cell proliferation assay): 21.4 µM
- IC50 (134 cancer cell lines; Homo sapiens, Daoy, read-out: IC50 in cell proliferation assay): > 31.6 µM
- IC50 (134 cancer cell lines; Homo sapiens, DoTc2-4510, read-out: IC50 in cell proliferation assay): > 31.6 µM
- IC50 (134 cancer cell lines; Homo sapiens, EOL1, read-out: IC50 in cell proliferation assay): > 31.6 µM
- IC50 (134 cancer cell lines; Homo sapiens, FaDu, read-out: IC50 in cell proliferation assay): > 31.6 µM
- IC50 (134 cancer cell lines; Homo sapiens, G-361, read-out: IC50 in cell proliferation assay): > 31.6 µM
- IC50 (134 cancer cell lines; Homo sapiens, HCC827, read-out: IC50 in cell proliferation assay): 8.39 µM
- IC50 (134 cancer cell lines; Homo sapiens, HCC4006, read-out: IC50 in cell proliferation assay): > 31.6 µM
- IC50 (134 cancer cell lines; Homo sapiens, HCT-15, read-out: IC50 in cell proliferation assay): > 31.6 µM
- IC50 (134 cancer cell lines; Homo sapiens, HCT-116, read-out: IC50 in cell proliferation assay): > 31.6 µM
- IC50 (134 cancer cell lines; Homo sapiens, HEC-1, read-out: IC50 in cell proliferation assay): > 31.6 µM
- IC50 (134 cancer cell lines; Homo sapiens, HEC-1B, read-out: IC50 in cell proliferation assay): > 31.6 µM
- IC50 (134 cancer cell lines; Homo sapiens, HL-60, read-out: IC50 in cell proliferation assay): > 31.6 µM
- IC50 (134 cancer cell lines; Homo sapiens, HT, read-out: IC50 in cell proliferation assay): > 31.6 µM
- IC50 (134 cancer cell lines; Homo sapiens, HT-1080, read-out: IC50 in cell proliferation assay): > 31.6 µM
- IC50 (134 cancer cell lines; Homo sapiens, Hs746T, read-out: IC50 in cell proliferation assay): 0.00123 µM
- IC50 (134 cancer cell lines; Homo sapiens, Hs-578T, read-out: IC50 in cell proliferation assay): > 31.6 µM
- IC50 (134 cancer cell lines; Homo sapiens, HuTu80, read-out: IC50 in cell proliferation assay): > 31.6 µM
- IC50 (134 cancer cell lines; Homo sapiens, J82, read-out: IC50 in cell proliferation assay): > 31.6 µM
- IC50 (134 cancer cell lines; Homo sapiens, Jurkat E6.1, read-out: IC50 in cell proliferation assay): > 31.6 µM
- IC50 (134 cancer cell lines; Homo sapiens, K562, read-out: IC50 in cell proliferation assay): > 31.6 µM
- IC50 (134 cancer cell lines; Homo sapiens, KATO III, read-out: IC50 in cell proliferation assay): > 31.6 µM
- IC50 (134 cancer cell lines; Homo sapiens, KG-1, read-out: IC50 in cell proliferation assay): > 31.6 µM
- IC50 (134 cancer cell lines; Homo sapiens, KLE, read-out: IC50 in cell proliferation assay): > 31.6 µM
- IC50 (134 cancer cell lines; Homo sapiens, KMS-11, read-out: IC50 in cell proliferation assay): 9.3 µM
- IC50 (134 cancer cell lines; Homo sapiens, KU812, read-out: IC50 in cell proliferation assay): > 31.6 µM
- IC50 (134 cancer cell lines; Homo sapiens, Kasumi 1, read-out: IC50 in cell proliferation assay): 25 µM
- IC50 (134 cancer cell lines; Homo sapiens, LC-2-ad, read-out: IC50 in cell proliferation assay): > 31.6 µM
- IC50 (134 cancer cell lines; Homo sapiens, LNCaP-Clone-FGC, read-out: IC50 in cell proliferation assay): > 31.6 µM
